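A five-concentration, 48-hour dose response in 96-well plates underlies each endpoint, interpolated linearly between surrounding concentrations. GI50 marks 50% less growth. TGI is the concentration that stops growth completely.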
Experiments:
Experiment in all cases: NCI tumour cell line growth inhibition, 48 h
[1] = system: PC-3 prostate
[2] = system: UACC-257 melanoma
[3] = system: UACC-62 melanoma
[4] = system: A498 renal
[5] = system: DU-145 prostate
[6] = system: BT-549 breast
[7] = system: HL-60(TB) leukemia
[8] = system: 786-0 renal
[9] = system: SK-OV-3 ovarian
[10] = system: HS 578T breast

[Br][Pb]([c]1ccccc1)([c]1ccccc1)[c]1ccccc1
GI50 [1]: 0.225 µM | TGI [1]: 0.515 µM | GI50 [2]: 0.193 µM | TGI [2]: 0.43 µM | GI50 [3]: 0.186 µM | TGI [3]: 0.428 µM | GI50 [4]: 0.177 µM | TGI [4]: 0.4 µM | GI50 [5]: 0.182 µM | TGI [5]: 0.37 µM | GI50 [6]: 0.198 µM | TGI [6]: 0.541 µM | GI50 [7]: 0.19 µM | TGI [7]: 0.498 µM | GI50 [8]: 0.153 µM | TGI [8]: 0.309 µM | GI50 [9]: 0.401 µM | TGI [9]: 1.51 µM

CN1C2C=CC(=O)C1C1C(=O)N(c3ccccc3)C(=O)C12 (stereo not given)
GI50 [1]: 5.8 µM | TGI [1]: 47.3 µM | GI50 [10]: 4.55 µM | TGI [10]: 22.3 µM | GI50 [2]: 2.42 µM | TGI [2]: 7.47 µM | GI50 [3]: 11.5 µM | TGI [3]: 24.3 µM | GI50 [4]: 15.6 µM | TGI [4]: 29.5 µM | GI50 [5]: 2.34 µM | TGI [5]: 6.69 µM | GI50 [7]: 2.19 µM | TGI [7]: > 100 µM | GI50 [8]: 3.57 µM | TGI [8]: 15.4 µM | GI50 [9]: 26.7 µM | TGI [9]: > 100 µM

N=C(N)c1ccc2oc3ccc(C(=N)N)cc3c(=O)c2c1
TGI [1]: > 100 µM | TGI [2]: > 100 µM | TGI [3]: > 100 µM | TGI [4]: > 100 µM | TGI [5]: > 100 µM | TGI [6]: > 100 µM | TGI [7]: > 100 µM | TGI [8]: > 100 µM

CC(C)=C[C@@H]1C[C@H](C)[C@H]2CC[C@H](C)c3c(O)c(OC4OC(C)C(O)C(O)C4O)c(C)c1c32 (stereo not given in full)
GI50 [10]: 11.6 µM | TGI [10]: 27.5 µM | GI50 [2]: 14.2 µM | TGI [2]: 27.3 µM | GI50 [4]: 12.7 µM | TGI [4]: 26.7 µM | GI50 [5]: 10.9 µM | TGI [5]: 23.3 µM | GI50 [6]: 18.9 µM | TGI [6]: 34.8 µM | GI50 [7]: 10.4 µM | TGI [7]: 25.7 µM | GI50 [8]: 17.8 µM | TGI [8]: 33 µM | GI50 [9]: 18.9 µM | TGI [9]: 32.9 µM

Cc1cc(N2CCC(N3CCCC3)CC2)nc(/N=C(\N)Nc2ccc(Cl)c(Cl)c2)n1
GI50 [1]: 2.65 µM | TGI [1]: 8.26 µM | GI50 [10]: 1.91 µM | TGI [10]: 5.06 µM | GI50 [2]: 1.92 µM | TGI [2]: 3.54 µM | GI50 [3]: 1.9 µM | TGI [3]: 3.6 µM | GI50 [4]: 1.94 µM | TGI [4]: 3.94 µM | GI50 [5]: 1.75 µM | TGI [5]: 3.44 µM | GI50 [6]: 2.44 µM | TGI [6]: 6.37 µM | GI50 [8]: 1.82 µM | TGI [8]: 3.41 µM | GI50 [9]: 1.88 µM | TGI [9]: 3.49 µM

O=C1C(Cl)=C(Nc2ccc(S(=O)(=O)c3ccc(NC4=C(Cl)C(=O)c5ccccc5C4=O)cc3)cc2)C(=O)c2ccccc21
GI50 [10]: 1.82 µM | TGI [10]: 5.85 µM | GI50 [2]: 1.92 µM | TGI [2]: 3.48 µM | GI50 [3]: 1.66 µM | TGI [3]: 3.18 µM | GI50 [4]: 3.72 µM | TGI [4]: 16.2 µM | GI50 [5]: 1.91 µM | TGI [5]: 3.69 µM | GI50 [6]: 1.65 µM | TGI [6]: 3.24 µM | GI50 [7]: 3.24 µM | TGI [7]: 8.62 µM | GI50 [8]: 1.86 µM | TGI [8]: 3.29 µM | GI50 [9]: 2.4 µM | TGI [9]: 7.94 µM

Nc1nc(SCc2ccccc2CCl)c2[nH]cnc2n1
GI50 [1]: 25.1 µM | TGI [1]: > 100 µM | GI50 [10]: 18.3 µM | TGI [10]: 97.2 µM | GI50 [2]: 14.5 µM | TGI [2]: 32.9 µM | GI50 [3]: 14.3 µM | TGI [3]: 30.1 µM | GI50 [4]: 11.7 µM | TGI [4]: 25.8 µM | GI50 [5]: 16.3 µM | TGI [5]: 41.7 µM | GI50 [6]: 13.7 µM | TGI [6]: 29.6 µM | GI50 [8]: 17.6 µM | TGI [8]: 40.3 µM | GI50 [9]: 16 µM | TGI [9]: 32.2 µM

Cc1ccc(NCCNCC(C)(C)O)c2c(=O)c3ccc(Cl)cc3sc12
GI50 [1]: 1.35 µM | TGI [1]: 2.71 µM | GI50 [10]: 1.59 µM | TGI [10]: 3.84 µM | GI50 [2]: 1.93 µM | TGI [2]: 3.44 µM | GI50 [3]: 1.81 µM | TGI [3]: 3.42 µM | GI50 [4]: 1.63 µM | TGI [4]: 3.09 µM | GI50 [5]: 1.67 µM | TGI [5]: 3.08 µM | GI50 [7]: 1.45 µM | TGI [7]: 3.17 µM | GI50 [8]: 1.57 µM | TGI [8]: 3.04 µM | GI50 [9]: 1.46 µM | TGI [9]: 2.98 µM

Clc1ccc(C=Nc2ccc(-c3nc4ccccc4[nH]3)cc2)cc1
GI50 [1]: > 100 µM | TGI [1]: > 100 µM | GI50 [10]: 39 µM | TGI [10]: > 100 µM | GI50 [2]: > 100 µM | TGI [2]: > 100 µM | GI50 [3]: > 100 µM | TGI [3]: > 100 µM | GI50 [4]: 17.4 µM | TGI [4]: > 100 µM | GI50 [5]: > 100 µM | TGI [5]: > 100 µM | GI50 [6]: > 100 µM | TGI [6]: > 100 µM | GI50 [8]: > 100 µM | TGI [8]: > 100 µM | GI50 [9]: > 100 µM | TGI [9]: > 100 µM

O=C(/C=C/c1ccc(O)c(O)c1)N1CCN(c2ccc(Cl)cc2)CC1
GI50 [1]: 4.67 µM | TGI [1]: 31.1 µM | GI50 [10]: 8.04 µM | TGI [10]: 49.4 µM | GI50 [2]: 7.72 µM | TGI [2]: 50 µM | GI50 [3]: 6.36 µM | TGI [3]: 23.3 µM | GI50 [4]: 2.5 µM | TGI [4]: 16.4 µM | GI50 [5]: 10.5 µM | TGI [5]: 47.5 µM | GI50 [6]: 5.21 µM | TGI [6]: 45.6 µM | GI50 [8]: 9.39 µM | TGI [8]: 37 µM | GI50 [9]: 10.1 µM | TGI [9]: 67.7 µM

O=S(=O)(c1ccccc1)N1CCCC(c2ccccc2)CC1 (stereo not given)
TGI [1]: > 100 µM | TGI [2]: > 100 µM | TGI [3]: > 100 µM | TGI [4]: > 100 µM | TGI [5]: > 100 µM | TGI [6]: > 100 µM | TGI [7]: 29.9 µM | TGI [8]: > 100 µM

Cc1nc2c(C)ccc([N+](=O)[O-])c2c(NCCCN(C)C)c1C
TGI [1]: > 47.9 µM | TGI [10]: > 100 µM | TGI [2]: 54.5 µM | TGI [3]: > 100 µM | TGI [4]: > 49.6 µM | TGI [5]: > 100 µM | TGI [7]: > 68.3 µM | TGI [8]: > 100 µM | TGI [9]: > 100 µM

— PubChem BioAssay (NCI)
